Assay results published in patent US20240294534A1, “IMIDAZOTRIAZINE DERIVATIVES AS IL-17 MODULATORS” (UCB BIOPHARMA SRL, priority 2021, published 2024).

These compounds were tested against T1, IL-17A (Homo sapiens, UniProt Q16552) (assay: Inhibition of IL-17A induced IL-6 release from dermal fibroblast cell line (HDF cell line assay)). Settings: human dermal fibroblasts stimulated with IL-17A (50 pM) + TNF-α (25 pM); IL-6 measured by HTRF; pIC50 = -log10[IC50], IC50 molar.
T1 sequence (Q16552 24-155): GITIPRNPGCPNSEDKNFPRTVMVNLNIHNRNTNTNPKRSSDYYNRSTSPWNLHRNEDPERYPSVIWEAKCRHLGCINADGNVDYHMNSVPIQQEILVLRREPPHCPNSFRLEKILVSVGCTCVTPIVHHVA
Type: cell-based
Text: Inhibition of IL-17A Induced IL-6 Release from Dermal Fibroblast Cell Line
The purpose of this assay is to test the neutralising ability to IL-17 proteins, in a human primary cell system. Stimulation of normal human dermal fibroblasts (HDF) with IL-17 alone produces only a very weak signal but in combination with certain other cytokines, such as TNFα, a synergistic effect can be seen in the production of inflammatory cytokines, i.e. IL-6.
HDFs were stimulated with IL-17A (50 pM) in combination with TNF-α (25 pM). The resultant IL-6 response was then measured using a homogenous time-resolved FRET kit from Cisbio. The kit utilises two monoclonal antibodies, one labelled with Eu-Cryptate (Donor) and the second with d2 or XL665 (Acceptor). The intensity of the signal is proportional to the concentration of IL-6 present in the sample (Ratio is calculated by 665/620×104).
The ability of a compound to inhibit IL-17 induced IL-6 release from human dermal fibroblasts is measured in this assay.
HDF cells (Sigma #106-05n) were cultured in complete media (DMEM+10% FCS+2 mM L-glutamine) and maintained in a tissue culture flask using standard techniques. Cells were harvested from the tissue culture flask on the morning of the assay using TrypLE (Invitrogen #12605036). The TrypLE was neutralised using complete medium (45 mL) and the cells were centrifuged at 300×g for 3 minutes. The cells were re-suspended in complete media (5 mL) counted and adjusted to a concentration of 3.125×10^4 cells/mL before being added to the 384 well assay plate (Corning #3701) at 40 μL per well. The cells were left for a minimum of three hours, at 37° C./5% CO2, to adhere to the plate.
Compounds were serially diluted in DMSO before receiving an aqueous dilution into a 384 well dilution plate (Greiner #781281), where 5 μL from the titration plate was transferred to 45 μL of complete media and mixed to give a solution containing 10% DMSO.
Mixtures of TNFα and IL-17 cytokine were prepared in complete media to final concentrations of TNFα 25 pM/IL-17A 50 pM, then 30 μL of the solution was added to a 384 well reagent plate (Greiner #781281).
10 μL from the aqueous dilution plate was transferred to the reagent plate containing 30 μL of the diluted cytokines, to give a 2.5% DMSO solution. The compounds were incubated with the cytokine mixtures for 5 h at 37° C. After the incubation, 10 μL was transferred to the assay plate, to give a 0.5% DMSO solution, then incubated for 18-20 h at 37° C./5% CO2.
From the Cisbio IL-6 FRET kit (Cisbio #62IL6PEB) europium cryptate and Alexa 665 were diluted in reconstitution buffer and mixed 1:1, as per kit insert. To a white low volume 384 well plate (Greiner #784075) were added FRET reagents (10 μL), then supernatant (10 μL) was transferred from the assay plate to Greiner reagent plate. The mixture was incubated at room temperature for 3 h with gentle shaking (<400 rpm) before being read on a Synergy Neo 2 plate reader (Excitation: 330 nm; Emission: […]).

| Compound | IC50 [nM] |
| --- | --- |
| Cc1nonc1C(=O)N[C@H](c1cn2ncc([C@@H]3C[C@@H](O)CCN3C(=O)[C@@H]3CCC(F)(F)CO3)nc2n1)C1CCC(F)(F)CC1 (single isomer, unassigned) [Example 44] | 126 |
| Cc1nonc1C(=O)N[C@H](c1cn2ncc([C@H]3C[C@@](O)(C(F)F)CCN3C(=O)C34CC(F)(C3)C4)nc2n1)C1CCC(F)(F)CC1 (single isomer, unassigned) [Example 29] | 631 |
| O=C(N[C@H](c1cn2ncc(C3CS(=O)(=O)CCN3C(=O)C34CC(F)(C3)C4)nc2n1)[C@H]1CC[C@H](C(F)(F)F)CC1)OCc1ccccc1 (stereo partly drawn) [Example 13, Benzyl N—[(S)-{3-[4-(3-fluorobicyclo[1.1.1]pentane-1-carbonyl)-1,1-dioxo-1,4-thiazinan-3-yl]imidazo[1,2-b][1,2,4]triazin-6-yl}[4-(trifluoromethyl)cyclohexyl]methyl]carbamate] | 50.1 |
| Cc1nonc1C(=O)N[C@H](c1cn2ncc([C@@H]3C[C@@](O)(C(F)(F)F)CCN3C(=O)C34CC(F)(C3)C4)nc2n1)C1CCC(F)(F)CC1 (single isomer, unassigned) [Example 9] | 6.31 |
| Cc1nonc1C(=O)N[C@H](c1cn2ncc([C@H]3C[C@](C)(O)CCN3C(=O)C34CC(F)(C3)C4)nc2n1)C1CCC(F)(F)CC1 (single isomer, unassigned) [Example 41] | 794 |
| Cc1nonc1C(=O)N[C@H](c1cn2ncc([C@H]3C[C@](O)(C(F)F)CCN3C(=O)C34CC(F)(C3)C4)nc2n1)C1CCC(F)(F)CC1 (single isomer, unassigned) [Example 27] | 251 |
| Cc1nonc1C(=O)N[C@H](c1cn2ncc([C@@H]3C[C@](C)(O)CCN3C(=O)C34CC(F)(C3)C4)nc2n1)C1CCC(F)(F)CC1 (single isomer, unassigned) [Example 36] | 12.6 |
| Cn1nccc1C(=O)N[C@H](c1cn2ncc([C@H]3C[C@](O)(C(F)F)CCN3C(=O)[C@@H]3CCC(F)(F)CO3)nc2n1)C1CCC(F)(F)CC1 (single isomer, unassigned) [Example 47] | 631 |
| Cc1nonc1C(=O)N[C@H](c1cn2ncc([C@H]3C[C@](O)(C(F)(F)F)CCN3C(=O)C34CC(F)(C3)C4)nc2n1)C(C1CC1)C1CC1 (single isomer, unassigned) [Example 2] | 158 |
| CC(C)n1ncnc1C(=O)N[C@H](c1cn2ncc([C@H]3C[C@@](C)(O)CCN3C(=O)[C@@H]3CCC(F)(F)CO3)nc2n1)C1CCC(F)(F)CC1 (single isomer, unassigned) [Example 53] | 501 |
| Cc1nonc1C(=O)N[C@H](c1cn2ncc([C@H]3C[C@@](O)(C(F)(F)F)CCN3C(=O)C34CC(F)(C3)C4)nc2n1)C1CCC(F)(F)CC1 (single isomer, unassigned) [Example 33] | 126 |
| CC(C)n1ncnc1C(=O)N[C@H](c1cn2ncc([C@H]3C[C@@H](O)CCN3C(=O)[C@@H]3CCC(F)(F)CO3)nc2n1)C1CCC(F)(F)CC1 (single isomer, unassigned) [Example 50] | 12.6 |
| CC(C)n1ncnc1C(=O)N[C@H](c1cn2ncc([C@@H]3C[C@@](O)(C(F)F)CCN3C(=O)[C@@H]3CCC(F)(F)CO3)nc2n1)C1CCC(F)(F)CC1 (single isomer, unassigned) [Example 48] | 6.31 |
| Cc1nonc1C(=O)N[C@H](c1cn2ncc([C@@H]3COCCN3C(=O)[C@@H]3CCC(F)(F)CO3)nc2n1)C(C1CC1)C1CC1 (single isomer, unassigned) [Example 5] | 3.98 |
| Cn1nccc1C(=O)N[C@H](c1cn2ncc([C@@H]3C[C@@](O)(C(F)F)CCN3C(=O)[C@@H]3CCC(F)(F)CO3)nc2n1)C1CCC(F)(F)CC1 (single isomer, unassigned) [Example 46] | 12.6 |
| O=C([C@@H]1CCC(F)(F)CO1)N1CC[C@@](O)(C(F)(F)F)C[C@@H]1c1cnn2cc([C@@H](NC(=O)C3(F)CC3)C3CCC(F)(F)CC3)nc2n1 (single isomer, unassigned) [Example 21] | 398 |

Further lines, results first:

| IC50 [nM] | Compound |
| --- | --- |
| 631 | Cc1nonc1C(=O)N[C@H](c1cn2ncc([C@H]3COCCN3C(=O)C34CC(F)(C3)C4)nc2n1)C1CCC(F)(F)CC1 (single isomer, unassigned) [Example 4] |
| 15.8 | Cc1nonc1C(=O)N[C@H](c1cn2ncc(C3(C(=O)NCC(C)(F)F)CCN(C4COC4)CC3)nc2n1)C1CCC(F)(F)CC1 [Example 56, N—[(S)-(4,4-Difluorocyclohexyl){3-[4-(2,2-difluoropropylcarbamoyl)-1-(oxetan-3-yl)-piperidin-4-yl]imidazo[1,2-b][1,2,4]triazin-6-yl}methyl]-4-methyl-1,2,5-oxadiazole-3-carboxamide] |
| 7.94 | Cc1nonc1C(=O)N[C@H](c1cn2ncc(C3(C(=O)N4CC(F)(F)C(F)(F)C4)CCN(C4COC4)CC3)nc2n1)C1CCC(F)(F)CC1 [Example 54, N—[(S)-(4,4-Difluorocyclohexyl){3-[1-(oxetan-3-yl)-4-(3,3,4,4-tetrafluoropyrrolidine-1-carbonyl)piperidin-4-yl]imidazo[1,2-b][1,2,4]triazin-6-yl}methyl]-4-methyl-1,2,5-oxadiazole-3-carboxamide] |
| 126 | Cc1nonc1C(=O)N[C@H](c1cn2ncc([C@@H]3C[C@@](C)(O)CCN3C(=O)[C@@H]3CCC(F)(F)CO3)nc2n1)C1CCC(F)(F)CC1 (single isomer, unassigned) [Example 38] |
| 79.4 | Cc1nonc1C(=O)N[C@H](c1cn2ncc([C@@H]3COCCN3C(=O)C34CC(F)(C3)C4)nc2n1)C1CCC(F)(F)CC1 (single isomer, unassigned) [Example 3] |
| 794 | Cc1nonc1C(=O)N[C@H](c1cn2ncc([C@H]3C[C@@](C)(O)CCN3C(=O)C34CC(F)(C3)C4)nc2n1)C1CCC(F)(F)CC1 (single isomer, unassigned) [Example 37] |
| 126 | Cc1nonc1C(=O)N[C@H](c1cn2ncc([C@H]3C[C@@](C)(O)CCN3C(=O)[C@@H]3CCC(F)(F)CO3)nc2n1)C1CCC(F)(F)CC1 (single isomer, unassigned) [Example 35] |
